Active and inactive are the calls of the source. The rule behind the calls is not given here. A value given as a limit tells only on which side of the number the result lay.

The record followed here is ChEMBL document CHEMBL5380860, “Design, Synthesis, and Antitumor Activity of Potent and Selective EGFR L858R/T790M Inhibitors and Identification of a Combination Therapy to Overcome Acquired Resistance in Models of Non-small-cell Lung Cancer” (J Med Chem, 2023).

In data set [1] the test system is NCI-H1975. The data set can be described thus: Antiproliferative activity against human NCI-H1975 cells harboring EGFR L858R/T790M mutant assessed as reduction in cell viability measured after 72 hrs by MTT assay. To be noted: NCI-H1975, 72 h. It counts as functional, cell-based. A general note: Tetrazolium assays rely on reduction of a dye to a coloured formazan, in cell work by metabolically active cells.

A further data set concerns the target wild type EGFR (Homo sapiens, UniProt P00533). In words: Inhibition of human wild type partial length EGFR (R669 to V1011 residues) expressed in bacterial expression system assessed as residual activity at 1 uM by KINOMEscan analysis. It counts as toxicity. To be noted: read-out: Activity.
Data set [2] addresses T1, Tyrosine-protein kinase Tec (Homo sapiens, UniProt P42680).
T1 sequence (P42680 whole entry): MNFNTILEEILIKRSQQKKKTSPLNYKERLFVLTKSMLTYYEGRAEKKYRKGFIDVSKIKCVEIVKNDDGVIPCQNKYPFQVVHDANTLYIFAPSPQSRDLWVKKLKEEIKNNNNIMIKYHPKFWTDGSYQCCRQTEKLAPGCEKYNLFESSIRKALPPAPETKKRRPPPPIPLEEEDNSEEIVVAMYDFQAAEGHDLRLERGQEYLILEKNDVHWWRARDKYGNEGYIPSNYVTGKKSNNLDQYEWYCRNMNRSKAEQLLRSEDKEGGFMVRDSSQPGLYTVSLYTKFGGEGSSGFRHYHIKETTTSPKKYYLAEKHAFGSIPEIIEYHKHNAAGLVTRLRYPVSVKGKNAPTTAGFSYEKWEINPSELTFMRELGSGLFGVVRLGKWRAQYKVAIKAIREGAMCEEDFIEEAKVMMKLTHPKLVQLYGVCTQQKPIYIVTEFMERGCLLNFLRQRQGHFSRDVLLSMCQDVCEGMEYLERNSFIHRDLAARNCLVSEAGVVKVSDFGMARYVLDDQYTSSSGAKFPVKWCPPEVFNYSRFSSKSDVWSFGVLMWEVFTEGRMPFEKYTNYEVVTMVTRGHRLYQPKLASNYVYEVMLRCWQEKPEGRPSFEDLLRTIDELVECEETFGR
In words: Inhibition of human wild type partial length TEC kinase (L341 to D620 residues) expressed in bacterial expression system by KINOMEscan analysis.

Data set [3] deals with T2, Epidermal growth factor receptor (Homo sapiens, UniProt P00533). In words: Inhibition of wild type EGFR in human A549 cells assessed as inhibition of EGF-induced EGFR phosphorylation at Tyr1068 residue at 10 uM pretreated with compound for 4 hrs followed by incubation with EGF for 10 mins by western blot analysis. It counts as toxicity, cell-based. To be noted: a549, 4.167 h, time 250 min. Background: In western blotting, separated proteins are transferred to a membrane and probed.

The target of data set [4] is T2, Epidermal growth factor receptor. The data set can be described thus: Inhibition of wild type EGFR in human A549 cells assessed as inhibition of EGF-induced ERK-1/2 phosphorylation at 10 uM pretreated with compound for 4 hrs followed by incubation with EGF for 10 mins by western blot analysis. It counts as toxicity, cell-based. To be noted: a549, 4.167 h, time 250 min.

Data set [5] concerns NCI-H1975. The data set can be described thus: Induction of apoptosis in human NCI-H1975 cells assessed as increase in caspase-3/7 activity at 0.1 to 10 uM incubated for 24 hrs by Caspase-Glo reagent based luminescence analysis. It counts as functional, cell-based. To be noted: dose 0.1-10 µM.
A further data set deals with A549. The data set can be described thus: Inhibition of cell migration in human A549 cells at 10 uM incubated for 48 hrs by scratch wound healing assay. It counts as toxicity, cell-based. To be noted: a549, 48 h.
Data set [6] can be described thus: Cmax in Sprague-Dawley rat at 1 mg/kg, iv by LC-MS analysis. Also on record: dose 1 mg/kg, route iv. It counts as ADME, organism-based. To be noted: in vivo.
Data set [7] can be described thus: Clearance in Sprague-Dawley rat at 1 mg/kg, iv by LC-MS analysis. It counts as ADME, organism-based. To be noted: in vivo.
Data set [8] in a line: Toxicity in BALB/c mouse xenografted with human NCI-H1975 cells assessed as effect on body weight at 5 to 20 mg/kg/day, ip. It counts as organism-based. To be noted: in vivo, dose 5-20 mg/kg/day.
Data set [9] is described as follows: Toxicity in BALB/c mouse xenografted with human NCI-H1975 cells assessed as change in heart morphological changes at 5 to 20 mg/kg/day, ip by hematoxylin-eosin staining based analysis. To be noted: in vivo, dose 5-20 mg/kg/day. It counts as organism-based.
The nature of data set [10]: Toxicity in BALB/c mouse xenografted with human NCI-H1975 cells assessed as change in spleen morphological changes at 5 to 20 mg/kg/day, ip by hematoxylin-eosin staining based analysis. It counts as organism-based. To be noted: in vivo, dose 5-20 mg/kg/day.
In data set [11] the test system is Mus musculus. The data set can be described thus: In vivo inhibition of EGFR L858R/T790M mutant in ip dosed NCI-H1975 cells xenografted BALB/c mouse assessed as inhibition of EGFR phosphorylation at Tyr1068 residue in tumor by immunoblot analysis. To be noted: dose 5-20 mg/kg/day. It counts as functional, organism-based.
Data set [12] concerns Mus musculus. The data set can be described thus: In vivo inhibition of EGFR L858R/T790M mutant in NCI-H1975 cells xenografted BALB/c mouse assessed as inhibition of EGFR phosphorylation at Tyr1068 residue in tumor at 20 mg/kg/day, ip by immunoblot analysis. It counts as functional, organism-based.
Data set [13] relates to NCI-H1975. The data set can be described thus: Synergistic antiproliferative activity against N-(3-((6-Fluoro-2-((4-(4-methylpiperazin-1-yl)phenyl)amino)quinazolin-4-yl)amino)phenyl)acrylamide-resistant human NCI-H1975 cells assessed as combination index measured after 72 hrs in presence of ACK1 inhibitor, AIM100 by MTT assay. It counts as functional.
Data set [14] concerns Epidermal growth factor receptor (Homo sapiens), P00533 [L858R,T790M]. In words: Inhibition of EGFR L858R/T790M mutant in N-(3-((6-Fluoro-2-((4-(4-methylpiperazin-1-yl)phenyl)amino)quinazolin-4-yl)amino)phenyl)acrylamide-resistant human NCI-H1975 cells assessed as inhibition of EGF-induced AKT phosphorylation at Ser473 residue pretreated with compound and ACK1 inhibitor, Dasatinib for 4 hrs followed by incubation with EGF for 10 mins by western blot analysis. It counts as cell-based. To be noted: time 250.0 min.

For data set [15], the system named is NCI-H1975. The data set can be described thus: Antitumor activity against N-(3-((6-Fluoro-2-((4-(4-methylpiperazin-1-yl)phenyl)amino)quinazolin-4-yl)amino)phenyl)acrylamide-resistant human NCI-H1975 cells xenografted in BALB/c mouse assessed as inhibition of tumor volume at 20 mg/kg/day, ip in presence of ACK1 inhibitor, dasatinib. It counts as functional, organism-based. For orientation: A xenograft is tissue or cells of one species grown in another, often human tumour cells in immunodeficient mice.

A short description of data set [16]: Toxicity in BALB/c mouse xenografted with N-(3-((6-Fluoro-2-((4-(4-methylpiperazin-1-yl)phenyl)amino)quinazolin-4-yl)amino)phenyl)acrylamide-resistant human NCI-H1975 cells assessed as changes in liver morphological changes at 20 mg/kg/day, ip in presence of ACK1 inhibitor, dasatinib by hematoxylin-eosin staining based analysis. To be noted: in vivo. It counts as organism-based.

The nature of data set [17]: Toxicity in BALB/c mouse xenografted with N-(3-((6-Fluoro-2-((4-(4-methylpiperazin-1-yl)phenyl)amino)quinazolin-4-yl)amino)phenyl)acrylamide-resistant human NCI-H1975 cells assessed as changes in spleen morphological changes at 20 mg/kg/day, ip in presence of ACK1 inhibitor, dasatinib by hematoxylin-eosin staining based analysis. It counts as organism-based. To be noted: in vivo.

Data set [18] concerns NCI-H1975. In words: Antitumor activity against N-(3-((6-Fluoro-2-((4-(4-methylpiperazin-1-yl)phenyl)amino)quinazolin-4-yl)amino)phenyl)acrylamide-resistant human NCI-H1975 cells xenografted in BALB/c mouse assessed as inhibition of tumor weight at 20 mg/kg/day, ip in presence of ACK1 inhibitor, dasatinib. It counts as functional, organism-based.
Data set [19] is filed under the species Mus musculus. To be noted: BALB/c, dose 10.0 mg/kg/day, route po.
The species named for data set [20] is Mus musculus. To be noted: BALB/c, dose 10.0 mg/kg/day, route po. The source holds these as a separate data set.

T2 sequence (P00533 whole entry): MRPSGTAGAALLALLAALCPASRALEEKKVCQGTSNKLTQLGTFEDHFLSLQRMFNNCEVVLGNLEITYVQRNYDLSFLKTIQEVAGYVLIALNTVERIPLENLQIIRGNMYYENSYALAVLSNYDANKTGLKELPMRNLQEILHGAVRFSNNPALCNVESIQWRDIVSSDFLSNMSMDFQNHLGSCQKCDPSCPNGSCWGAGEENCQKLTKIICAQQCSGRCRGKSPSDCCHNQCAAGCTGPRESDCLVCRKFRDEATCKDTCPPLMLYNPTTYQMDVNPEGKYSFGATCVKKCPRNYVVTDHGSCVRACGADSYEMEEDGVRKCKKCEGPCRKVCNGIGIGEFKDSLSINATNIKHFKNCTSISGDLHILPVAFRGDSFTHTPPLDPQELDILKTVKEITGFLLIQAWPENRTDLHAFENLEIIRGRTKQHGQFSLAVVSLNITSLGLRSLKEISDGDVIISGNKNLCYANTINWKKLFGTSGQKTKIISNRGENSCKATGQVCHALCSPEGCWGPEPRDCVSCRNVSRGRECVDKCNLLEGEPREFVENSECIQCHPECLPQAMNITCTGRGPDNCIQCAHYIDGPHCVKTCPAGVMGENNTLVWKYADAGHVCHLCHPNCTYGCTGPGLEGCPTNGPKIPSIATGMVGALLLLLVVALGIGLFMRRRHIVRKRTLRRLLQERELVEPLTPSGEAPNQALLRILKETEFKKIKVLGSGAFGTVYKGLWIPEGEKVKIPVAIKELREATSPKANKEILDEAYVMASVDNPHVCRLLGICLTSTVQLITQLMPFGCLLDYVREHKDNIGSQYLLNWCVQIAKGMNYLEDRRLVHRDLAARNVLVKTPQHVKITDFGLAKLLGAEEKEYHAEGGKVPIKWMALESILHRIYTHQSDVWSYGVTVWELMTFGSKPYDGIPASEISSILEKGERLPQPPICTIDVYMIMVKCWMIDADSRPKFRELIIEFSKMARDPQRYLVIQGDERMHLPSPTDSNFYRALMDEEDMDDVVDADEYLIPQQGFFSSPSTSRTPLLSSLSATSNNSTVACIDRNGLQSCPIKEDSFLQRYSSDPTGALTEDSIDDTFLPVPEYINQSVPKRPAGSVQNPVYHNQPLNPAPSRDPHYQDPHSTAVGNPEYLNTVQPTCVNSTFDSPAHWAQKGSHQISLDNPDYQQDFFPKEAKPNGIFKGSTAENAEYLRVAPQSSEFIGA
Sequence of wild type EGFR (P00533 whole entry, the tested form may be a part): as the sequence (P00533 whole entry) above
Sequence of Epidermal growth factor receptor (Homo sapiens), P00533 [L858R,T790M] (P00533 whole entry T790M/L858R, looked up): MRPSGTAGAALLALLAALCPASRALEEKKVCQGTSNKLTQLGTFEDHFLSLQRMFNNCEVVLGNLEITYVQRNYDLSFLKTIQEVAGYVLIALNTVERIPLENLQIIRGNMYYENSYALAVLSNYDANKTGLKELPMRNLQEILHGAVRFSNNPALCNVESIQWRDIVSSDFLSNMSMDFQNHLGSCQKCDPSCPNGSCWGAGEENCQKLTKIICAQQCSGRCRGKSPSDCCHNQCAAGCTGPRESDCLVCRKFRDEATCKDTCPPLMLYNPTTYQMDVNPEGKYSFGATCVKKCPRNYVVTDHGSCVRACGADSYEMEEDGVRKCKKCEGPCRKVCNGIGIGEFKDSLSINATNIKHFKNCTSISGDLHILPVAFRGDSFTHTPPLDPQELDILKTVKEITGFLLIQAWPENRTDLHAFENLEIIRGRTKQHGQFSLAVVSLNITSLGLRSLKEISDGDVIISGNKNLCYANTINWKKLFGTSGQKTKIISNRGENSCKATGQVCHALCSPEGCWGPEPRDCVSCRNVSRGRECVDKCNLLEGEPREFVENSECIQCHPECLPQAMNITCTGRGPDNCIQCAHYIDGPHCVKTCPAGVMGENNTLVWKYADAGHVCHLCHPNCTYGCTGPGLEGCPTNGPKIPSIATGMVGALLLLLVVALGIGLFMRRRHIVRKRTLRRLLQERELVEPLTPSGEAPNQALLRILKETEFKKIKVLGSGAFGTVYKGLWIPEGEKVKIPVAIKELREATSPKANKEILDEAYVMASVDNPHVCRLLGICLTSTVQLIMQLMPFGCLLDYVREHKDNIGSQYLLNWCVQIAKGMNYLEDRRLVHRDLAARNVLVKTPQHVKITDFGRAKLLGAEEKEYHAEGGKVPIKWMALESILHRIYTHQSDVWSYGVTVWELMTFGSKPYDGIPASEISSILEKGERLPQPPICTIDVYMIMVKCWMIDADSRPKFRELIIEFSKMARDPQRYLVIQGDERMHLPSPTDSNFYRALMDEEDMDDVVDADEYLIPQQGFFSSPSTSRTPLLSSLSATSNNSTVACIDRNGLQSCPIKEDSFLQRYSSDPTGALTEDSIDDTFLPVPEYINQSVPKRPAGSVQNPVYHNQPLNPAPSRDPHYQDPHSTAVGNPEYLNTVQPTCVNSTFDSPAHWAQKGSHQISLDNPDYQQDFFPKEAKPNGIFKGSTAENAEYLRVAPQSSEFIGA

Consider `C=CC(=O)Nc1cccc(Nc2nc(Nc3ccc(N4CCN(C)CC4)cc3)nc3ccc(F)cc23)c1`, for which the IC50 – broadly, the concentration that inhibits the measured activity by half – was determined as 19 nM in the data set on NCI-H1975 [1] and 518 nM in [2]. In addition, on wild type EGFR, the activity at 1 µM amounted to 96%. Besides, the “inhibition (INH)” value in data set [3] and in data set [4] was “Not Active” throughout. The Activity result in the data set with NCI-H1975 [5], with NCI-H1975 [15] and in the data set on NCI-H1975 [18] was “Active” throughout. The Activity result (in the data set on A549; in data set [8]; in data set [9]; in data set [10]; in [16]; in data set [17]) was “Non-Toxic” each time. For the same molecule, in [6], the peak level (Cmax) was 650 ng/mL. Also, in data set [7], the clearance – broadly, a measure of how efficiently the substance is removed, as volume per time – was 16.1 mL/min/kg. The inhibition result in the data set with Mus musculus [11] was “Dose-Dependent Effect”. The inhibition entry (with Mus musculus [12]; in data set [14]) was “Active” each time. For the same molecule, the CI with NCI-H1975 [13] is recorded as less than 2.

On to `C=CC(=O)Nc1cc(Nc2nccc(-c3cn(C)c4ccccc34)n2)c(OC)cc1N(C)CCN(C)C` [OSIMERTINIB], for which the inhibition entry in the data set listed under Mus musculus [19] and in the data set filed under Mus musculus [20] was “Active” each time.
